The source of these data is ChEMBL document CHEMBL3632570, “Structure-Guided Design of Novel l-Cysteine Derivatives as Potent KSP Inhibitors” (ACS Med Chem Lett, 2015).

The source made the active and inactive calls. No cut-off for these calls is given here.

For series [1], the target named is T1, Kinesin-like protein KIF11 (Homo sapiens, UniProt P52732).
T1 sequence (P52732 whole entry): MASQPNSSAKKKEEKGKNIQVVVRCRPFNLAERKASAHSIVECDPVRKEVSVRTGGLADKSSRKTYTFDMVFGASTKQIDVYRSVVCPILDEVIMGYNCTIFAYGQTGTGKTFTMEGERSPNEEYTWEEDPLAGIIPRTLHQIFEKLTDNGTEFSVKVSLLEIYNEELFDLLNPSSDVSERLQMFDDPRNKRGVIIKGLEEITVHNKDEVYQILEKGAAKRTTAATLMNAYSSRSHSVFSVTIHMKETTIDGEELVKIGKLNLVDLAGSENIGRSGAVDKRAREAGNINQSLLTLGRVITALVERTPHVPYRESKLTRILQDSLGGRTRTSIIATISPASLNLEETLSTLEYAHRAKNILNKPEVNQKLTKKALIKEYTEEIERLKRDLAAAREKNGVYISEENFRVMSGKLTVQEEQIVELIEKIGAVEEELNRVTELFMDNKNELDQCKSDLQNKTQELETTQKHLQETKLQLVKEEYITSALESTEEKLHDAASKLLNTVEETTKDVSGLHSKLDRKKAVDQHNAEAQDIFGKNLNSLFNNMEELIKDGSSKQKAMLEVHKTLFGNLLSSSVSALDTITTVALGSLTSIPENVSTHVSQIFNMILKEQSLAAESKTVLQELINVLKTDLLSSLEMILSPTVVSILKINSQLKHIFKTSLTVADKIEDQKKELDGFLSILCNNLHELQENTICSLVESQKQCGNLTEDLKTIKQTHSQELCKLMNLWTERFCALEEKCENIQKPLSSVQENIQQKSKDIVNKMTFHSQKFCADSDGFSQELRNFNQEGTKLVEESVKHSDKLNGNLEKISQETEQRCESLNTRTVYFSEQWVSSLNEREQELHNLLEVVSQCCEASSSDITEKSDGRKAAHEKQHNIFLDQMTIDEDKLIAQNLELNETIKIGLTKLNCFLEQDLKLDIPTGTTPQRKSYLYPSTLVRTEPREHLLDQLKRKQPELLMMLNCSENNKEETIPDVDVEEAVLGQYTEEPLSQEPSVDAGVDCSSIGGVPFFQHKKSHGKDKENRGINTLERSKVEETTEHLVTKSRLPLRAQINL
The series can be described thus: Inhibition of His-tagged KSP motor domain (1 to 369) (unknown origin) assessed as inhibition of microtubule-stimulated KSP ATPase activity preincuabted for 30 mins followed by ATP addition measured after 15 mins by Kinase-Glo assay. (Kinase-Glo measures the ATP left after a reaction by luminescence.)

The subject of series [2] is HCT-116. The series can be described thus: Growth inhibition of human HCT116 cells after 72 hrs by MTS assay. The series is classed as functional, cell-based. To be noted: HCT-116, 72 h. In general terms: Tetrazolium dyes change colour on reduction, which living cells bring about.
The test system of series [3] is Mus musculus. Description: Toxicity in athymic nude BALB/cAJcL mouse xenografted with HCT116 cells assessed as mortality at 150 mg/kg, iv administered on days 1,3,5,8,10 and 12. The series is classed as organism-based, HCT-116. To be noted: in vivo.
Series [4] relates to HCT-116. Description: Antitumor activity against human HCT116 cells xenografted in athymic nude BALB/cAJcL mouse assessed as inhibition of tumor growth at 150 mg/kg, iv administered on days 1,3,5,8,10 and 12 measured on day 15. The format is functional.
Series [5] deals with T2, Kinesin-like protein KIF11 (Homo sapiens) (UniProt P52732).
T2 sequence (whole entry): T1 sequence (P52732 whole entry)
Description: Binding affinity to KSP motor domain (unknown origin) assessed as change in melting temperature at 100 uM by differential scanning fluorimetry in presence of 1 mM ATP

In series [6] the test system is Mus musculus. The series can be described thus: Toxicity in athymic nude BALB/cAJcL mouse xenografted with HCT116 cells assessed as mortality at 25 mg/kg, iv administered on days 1,3,5,8,10 and 12. The series is classed as organism-based, HCT-116. The note with it: in vivo.
Series [7] has as its system Mus musculus. The series can be described thus: Toxicity in athymic nude BALB/cAJcL mouse xenografted with HCT116 cells assessed as mortality at 75 mg/kg, iv administered on days 1,3,5,8,10 and 12. The format is organism-based, HCT-116. The note with it: in vivo.
Series [8] relates to Mus musculus. The series can be described thus: Toxicity in athymic nude BALB/cAJcL mouse xenografted with HCT116 cells assessed as body weight loss at 25 mg/kg, iv administered on days 1,3,5,8,10 and 12 relative to vehicle-treated control. The format is organism-based, HCT-116. The note with it: in vivo.
For series [9], the system named is HCT-116. Description: Antitumor activity against human HCT116 cells xenografted in iv dosed athymic nude BALB/cAJcL mouse assessed as inhibition of tumor growth drug administered on days 1,3,5,8,10 and 12 measured on day 15. The series is classed as functional, organism-based.
The subject of series [10] is HCT-116. The series can be described thus: Antitumor activity against human HCT116 cells xenografted in athymic nude BALB/cAJcL mouse assessed as inhibition of tumor growth at 75 mg/kg, iv administered on days 1,3,5,8,10 and 12 measured on day 15. The series is classed as functional.
In series [11] the test system is HCT-116. The series can be described thus: Antitumor activity against human HCT116 cells xenografted in athymic nude BALB/cAJcL mouse assessed as inhibition of tumor growth at 25 mg/kg, iv administered on days 1,3,5,8,10 and 12 measured on day 15. The format is functional. Background: In xenograft studies the graft and the host belong to different species.
In series [12] the test system is HCT-116. The series can be described thus: Antitumor activity against human HCT116 cells xenografted in athymic nude BALB/cAJcL mouse assessed as inhibition of tumor growth at 10 mg/kg, iv administered on days 1,3,5,8,10 and 12 measured on day 15. The format is functional.
Series [13] concerns HeLa. The series can be described thus: Cell cycle arrest at mitotic phase in human HeLa cells assessed as formation of monopolar spindles at 40 nM after 6 hrs by DAPI staining-based microscopic analysis. The format is functional.
Series [14] concerns HeLa. Description: Cell cycle arrest at mitotic phase in human HeLa cells assessed as mitotic index after 6 hrs. The format is functional.
For series [15], the system named is Mus musculus. Description: Toxicity in athymic nude BALB/cAJcL mouse xenografted with HCT116 cells assessed as mortality at 10 mg/kg, iv administered on days 1,3,5,8,10 and 12. The format is organism-based, HCT-116. The note with it: in vivo.

One may read the IC50 as the concentration that gives 50% inhibition. Take `N[C@@H](CSC1(c2ccc(C(F)(F)F)cc2)c2ccccc2COc2ccccc21)C(=O)O` (mixture of isomers): the values for the IC50 (in series [1]; in the series on HCT-116 [2]) were 75 nM and 76 nM, respectively.
Consider `CON(C)C(=O)N1N=C(c2cc(F)ccc2F)S[C@@]1(CCCN)c1ccccc1` [FILANESIB], for which the IC50 in [1] is 18 nM; in the series with HCT-116 [2], 0.7 nM.
With `N[C@@H](CSC(c1ccccc1)(c1ccccc1)c1ccc(C(F)(F)F)cc1)C(=O)O`, the IC50 came to 262 nM in series [1] and 216 nM with HCT-116 [2].
The term T/C denotes the ratio of treated to control. One may read the ΔTm as the change in melting temperature against a reference sample. Regarding `N[C@@H](CSC1(c2ccccc2)c2ccccc2CCc2ccccc21)C(=O)O`, the Activity result in the series on Mus musculus [3] is reported as “Non-toxic”; in the series on Mus musculus [6], “Non-toxic”; in the series with Mus musculus [7] it was “Non-toxic”; with Mus musculus [8] it was “Toxic”. The figures for the T/C in the series on HCT-116 [4], with HCT-116 [10] and in the series on HCT-116 [11] were 23%, 43% and 62%, respectively. Further, the ΔTm in series [5] is 8 °C. Moreover, the figures for the IC50 (in series [1]; in the series on HCT-116 [2]) were 209 nM and 325 nM, respectively. Besides, the TGI result in the series with HCT-116 [9] is “Dose-dependent effect”.
Take `Cc1ccc(C2(SC[C@H](N)C(=O)O)c3ccccc3CCc3ccccc32)cc1`: the Activity entry in the series with Mus musculus [6] is listed as “Non-toxic”. Besides, the IC50 in series [1] was found to be 9.3 nM; with HCT-116 [2] it was 25 nM. Besides, in the series with HCT-116 [11], the T/C was 19%.
For `N[C@@H](CSC1(c2ccc(Cl)cc2)c2ccccc2CCc2ccccc21)C(=O)O`, the Activity result in the series on Mus musculus [6] is “Non-toxic”; in the series on Mus musculus [8] it was “Toxic”. In addition, the IC50 in series [1] came out at 11 nM; with HCT-116 [2] it was 41 nM. Besides, the T/C in the series on HCT-116 [11] amounted to 11%.
As to `N[C@@H](CSC1(c2ccc(Cl)cc2)c2ccccc2C=Cc2ccccc21)C(=O)O`, the IC50 in [1] amounted to 12 nM; with HCT-116 [2], 3.9 nM.
With `COc1ccc(C(SC[C@H](N)C(=O)O)(c2ccccc2)c2ccccc2)cc1`, the ΔTm in series [5] stood at 9 °C. It took 213 nM to reach half-maximal inhibition in the series on HCT-116 [2] (IC50).
In the case of `N[C@@H](CSC1(c2ccc(C(F)(F)F)cc2)c2ccccc2Oc2ccccc21)C(=O)O`, the IC50 in series [1] is over 20000 nM; in the series on HCT-116 [2], over 10000 nM.
For the molecule `N[C@@H](CSC(c1ccccc1)(c1ccccc1)c1ccccc1)C(=O)O` [S-TRITYL-L-CYSTEINE], in the series on HCT-116 [2], the IC50 is 910 nM.
Turning to `N[C@@H](CSC1(c2ccc(C(F)(F)F)cc2)c2ccccc2C=Cc2ccccc21)C(=O)O`, the T/C in the series with HCT-116 [12] is on record as 31%; with HCT-116 [11], 12%. Also, in the series on HeLa [13], the result was Active. Moreover, the Activity entry in the series on Mus musculus [6] and in the series with Mus musculus [15] was “Non-toxic” in each case. Also, the IC50 is 36 nM in series [1] and 5 nM in the series on HCT-116 [2]. Also, in the series on HCT-116 [9], the TGI result was “Dose-dependent effect”. In addition, in the series on HeLa [14], the MI50 was 12 nM.
Take `COc1ccc(C2(SC[C@H](N)C(=O)O)c3ccccc3C=Cc3ccccc32)cc1`: the thermal shift (ΔTm) in series [5] came to 12.5 °C. Moreover, the figures for the IC50 (in [1]; in the series on HCT-116 [2]) were 8.6 nM and 2.6 nM, respectively.
Turning to `N[C@@H](CSC1(c2ccc(C(F)(F)F)cc2)c2ccccc2CSc2ccccc21)C(=O)O` (mixture of isomers), the values for the IC50 (in series [1]; with HCT-116 [2]) were 61 nM and 15 nM, respectively.
Turning to `Cc1ccc(C(=O)N(CCCN)[C@@H](c2nc3cc(Cl)ccc3c(=O)n2Cc2ccccc2)C(C)C)cc1` [ISPINESIB], in the series on HCT-116 [2], the IC50 came out at 1.1 nM.
With `N[C@@H](CSC1(c2ccc(C(F)(F)F)cc2)c2ccccc2Sc2ccccc21)C(=O)O`, the IC50 was over 20000 nM in series [1] and over 10000 nM in the series with HCT-116 [2].
In the case of `CC(C)(C)c1ccc(C2(SC[C@H](N)C(=O)O)c3ccccc3CCc3ccccc32)cc1`, the IC50 amounted to 301 nM in series [1] and 234 nM in the series with HCT-116 [2].
Taken in the same sequence, the figures for `Cc1ccccc1C1(SC[C@H](N)C(=O)O)c2ccccc2CCc2ccccc21` were 7800 nM and 4590 nM.
For `N[C@@H](CSC1(c2ccc(-c3ccccc3)cc2)c2ccccc2C=Cc2ccccc21)C(=O)O`, the IC50 in series [1] was 1400 nM; in the series with HCT-116 [2], 395 nM.
For `N[C@@H](CSC1(c2ccc(Oc3ccccc3)cc2)c2ccccc2CCc2ccccc21)C(=O)O` the same measures were 306 nM and 291 nM.
For `N[C@@H](CSC1(c2cccc(Cl)c2)c2ccccc2CCc2ccccc21)C(=O)O` the same measures were 160 nM and 637 nM.
On to `Cc1ccc(C2(SC[C@H](N)C(=O)O)c3ccccc3C=Cc3ccccc32)cc1`, for which the IC50 in series [1] worked out at 14 nM; in the series with HCT-116 [2], 3.4 nM.
Taken in the same sequence, the figures for `N[C@@H](CSC1(c2cccc(C(F)(F)F)c2)c2ccccc2CCc2ccccc21)C(=O)O` were 238 nM and 123 nM.
On to `N[C@@H](CSC1(c2ccc(-c3ccccc3)cc2)c2ccccc2CCc2ccccc21)C(=O)O`, for which the values for the IC50 (in [1]; with HCT-116 [2]) were 1060 nM and 1300 nM, respectively.
On to `N[C@@H](CSC1(c2ccccc2)c2ccccc2CCSc2ccccc21)C(=O)O` (mixture of isomers), for which the IC50 in series [1] is over 20000 nM; in the series on HCT-116 [2], over 10000 nM.
